The text below walks through data of article PMC2764525 (Biochemistry, 2009).

The target in series [1] is wild-type nikD. The settings on record: spectral titration, 100 mM potassium phosphate buffer, pH 8.0, 25 °C; cited from earlier work.
In series [2] the target is T1, nikD Asp276Asn (Streptomyces tendae, UniProt Q9X9P9, D276N). Nature of the series: biochemical. Type of series: binding.
The target in series [3] is T2, nikD Glu101Gln (Streptomyces tendae, UniProt Q9X9P9, E101Q). Description: biochemical. It counts as binding.
The conditions of series [4]: ionization at the N(3)H position in free FAD; cited from earlier work.
Series [5] concerns wild-type nikD. The settings on record: saturating P2C and oxygen, pH 8.0, 25 °C; cited from earlier work.
Series [6] has as its target T2, nikD Glu101Gln. Nature of the series: Anaerobic reductive half-reaction with P2C. It counts as biochemical.
For series [7], the system named is wild-type nikD. The settings on record: pH 8.0, 25 °C, cited from earlier work.
The target of series [8] is T2, nikD Glu101Gln. Description: Steady-state turnover with P2C and oxygen. It counts as biochemical.
Series [9] addresses T1, nikD Asp276Asn. Nature of the series: Anaerobic reductive half-reaction with P2C. It counts as biochemical.
Series [10] has as its target T1, nikD Asp276Asn. Nature of the series: Steady-state turnover with P2C and oxygen. It counts as biochemical.
Series [11] deals with T2, nikD Glu101Gln. The settings on record: pH 8.
In series [12] the target is T2, nikD Glu101Gln. Description: biochemical.
Series [13] concerns wild-type nikD. The settings on record: cited from earlier work.
Where [14] appears, read: apparent second-order rate constant from stopped-flow data, pH 8.0, 25 °C.
The mark [15] stands for this setting: limiting rate of fast phase at saturating P2C, pH 8.0, 25 °C.
The mark [16] stands for this setting: very fast phase preceding fast phase, pH 8.0, 25 °C.
Setting [17] is: saturating concentrations of P2C and oxygen.
The mark [18] stands for this setting: one-step binding, pH 8.0, 25 °C.

Each structure is given as a SMILES string. Several values for one entry are separate records, joined by “and”; a condition that tells them apart may be missing. Equal entries are not always repeated. Where two headings read alike, the source gives them in different places.

In the case of `O=C(O)C1=CCCCC1` [1-cyclohexenoate], the Kd was 12.8 ± 0.9 µM on wild-type nikD [1], 6.5 ± 0.9 µM on nikD Asp276Asn [2] and 0.9 ± 0.1 µM on nikD Glu101Gln [3].

Usually pKa stands for the pH at which an ionisable group is half protonated. For the compound `Cc1cc2nc3c(=O)[nH]c(=O)nc-3n(C[C@H](O)[C@H](O)[C@H](O)COP(=O)(O)OP(=O)(O)OC[C@H]3O[C@@H](n4cnc5c(N)ncnc54)[C@H](O)[C@@H]3O)c2cc1C` [FAD, flavin adenine dinucleotide], the pKa in series [4] is 10.4.

As usually defined, the kcat is the maximal rate divided by the concentration of active sites. For orientation: Ki means the dissociation constant of the complex between target and ligand, obtained from inhibition or displacement. Read a high Ki as a looser hold on the target. Turning to `O=C(O)C1=NCCCC1` [P2C, piperideine-2-carboxylate], the kcat is 2.3 ± 0.2 s⁻¹ with wild-type nikD [5]; 0.50 ± 0.01 s⁻¹ at nikD Glu101Gln [8] (saturating P2C and oxygen, ping-pong mechanism fit, pH 8.0, 25 °C); 1.22 ± 0.04 s⁻¹ at nikD Asp276Asn [10] (saturating P2C and oxygen, sequential mechanism fit, pH 8.0, 25 °C). The Kd at nikD Glu101Gln [6] is 1400 ± 200 µM; on wild-type nikD [7] (read-out: Kd app, hyperbolic fit of fast phase), 260 ± 20 µM; on nikD Asp276Asn [9] it was 110 ± 10 µM. The klim/Kd app was 9 ± 1 × 10^3 M^-1 s^-1 on nikD Glu101Gln [6] (setting [14]); 2.0 ± 0.2 × 10^5 M^-1 s^-1 in the series on wild-type nikD [7]; 1.01 ± 0.01 × 10^5 M^-1 s^-1 and 1.01 ± 0.09 × 10^5 M^-1 s^-1 on nikD Asp276Asn [9] (setting [14]). In addition, the klim at nikD Glu101Gln [6] (setting [15]) was 13.9 ± 0.9 s⁻¹; in the series on wild-type nikD [7] (limiting rate of fast phase at saturating P2C) it was 53 ± 1 s⁻¹; at nikD Asp276Asn [9] (setting [15]), 11.1 ± 0.2 s⁻¹. The “klim, fold faster than observed turnover rate (kcat)” value is “about 30 fold” on nikD Glu101Gln [6] (saturating P2C) and “about 10 fold” on nikD Asp276Asn [9] (saturating P2C). The “klim, fold slower than limiting rate with wild-type nikD” value on nikD Glu101Gln [6] (saturating P2C) was “about 4 fold”; on nikD Asp276Asn [9] (saturating P2C) it was “about 5 fold”. Moreover, the “kvery fast, Y-intercept of linear dependence on P2C concentration” value on nikD Glu101Gln [6] (setting [16]) was 10.1 ± 0.9 s⁻¹. Moreover, on nikD Glu101Gln [6] (setting [16]), the “kvery fast, slope of linear dependence on P2C concentration” value is reported as 8.8 ± 0.2 × 10^3 M^-1 s^-1. The kslow with wild-type nikD [7] (slow phase, independent of P2C concentration) is 2.7 ± 0.1 s⁻¹; at nikD Asp276Asn [9] (slow phase, independent of P2C concentration, pH 8.0, 25 °C) it was 3.0 ± 0.3 s⁻¹. Besides, the figures for the “turnover rate, fold slower than wild-type nikD” value at nikD Glu101Gln [8] (setting [17]) and at nikD Asp276Asn [10] (setting [17]) were “about 5 fold” and “about 2 fold”, respectively. For the same compound, at nikD Asp276Asn [10], the affinity corresponds to a Ki of 8 µM.

Take `C[Se]CC(=O)O` [methylselenoacetate]: the Kd is 1070 ± 40 µM on wild-type nikD [1], 1000 ± 30 µM at nikD Asp276Asn [2] and 112 ± 3 µM at nikD Glu101Gln [3].

Turning to `O=C(O)c1ccccn1` [picolinate], at nikD Glu101Gln [11], the k3 is 192 ± 9 s⁻¹. Further, at nikD Glu101Gln [11], the k4 stood at 27 ± 1 s⁻¹. The Kd at wild-type nikD [1] was 290 ± 40 µM; at nikD Asp276Asn [2], 420 ± 20 µM; on nikD Glu101Gln [12] it was 180 ± 30 µM; at nikD Glu101Gln [3], 151 ± 2 µM; at wild-type nikD [13] (read-out: Kd macroscopic (calc), calculated, equals k2/k1, pH 8.0, 25 °C), 280 ± 30 µM. Besides, the k1 with wild-type nikD [13] (setting [18]) is given as 2.83 ± 0.04 × 10^4 M^-1 s^-1. The k2 with wild-type nikD [13] (setting [18]) was 8.0 ± 0.7 s⁻¹.
